From patent US11318141B2, “Methods and compositions related to STK1-targeted small molecules as antibiotic resistance breakers” (Ohio State Innovation Foundation, priority 2017, dated 2022)
Converted amounts (≈) assume the structure as drawn. “And” between values parts separate entries of the source, which are not always exact repeats. Equal values may be shown once. Read-outs that look alike come from different tables or passages of the source.

What was measured:
[1] = tested on: S. aureus MW2ΔSTK1 mutant; test: E-test antibiotic susceptibility (MIC), Muller-Hinton agar; format: cell-based; conditions: Staphylococcus aureus
S. aureus MW2 wild-type [2] = test: Serial passage at suboptimal dose (10 generations), stk1 PCR and DNA sequencing; format: cell-based, Staphylococcus aureus; conditions: in the presence of 50 μM Inh2-B1
Description: (§1) Since the STK1 is not essential for bacterial survival and its absence results in retardation of growth, an end-point bactericidal assay was done, employing the Checkerboard titration method followed by a time-to-kill assay using the broth dilution method. The 96-well plate-based checkerboard titration assays were performed using the fixed number of CFUs of MW2 strain, and the survival of the bacteria was measured on solid agar plates as an end-point result. […] The cut-off value to designate clinical isolates of S. aureus for antibiotics, including Ceftriaxone (TX) and Cefotaxime (CT) as susceptible, is less than 4 μg/ml (i.e., <4.8 μM of TX, and <7 μM of CT). […] CFU counts of MW2-WT grown in the presence of various concentrations of Inh2-B1 were examined over a period of 16 h. […] Similarly, it was also determined CFU counts of MW2-WT and MW2ΔSTK1 strains each grown in the absence or the presence of 50 μM of Inh2-B1 and 1.5 μM Ceftriaxone (1 μg/ml) or […] Cefotaxime (1 μg/ml) for 16 h employing the broth dilution method. […] Further, to address whether MW2 or STK1 could become refractory to a potential combined therapy, the S. aureus MW2 wild-type strain was grown in the presence of suboptimal dose of Inh2-B1 alone and combination with Ceftriaxone and Cefotaxime (25 μM Inh2-B1 and 3 μM of Ceftriaxone or 3 μM Cefotaxime) for consecutive 10 generations.

[3] = tested on: S. aureus MW2ΔSTP1 mutant; test: E-test antibiotic susceptibility (MIC), Muller-Hinton agar; format: cell-based; conditions: Staphylococcus aureus
S. aureus MW2-WT [4] = test: microbe, parasite or virus in culture; format: cell-based, Staphylococcus aureus; conditions: Staphylococcus aureus, MW2WT
S. aureus MW2 wild-type [5] = test: Checkerboard titration end-point bactericidal assay (MBC), Muller-Hinton agar; format: cell-based, Staphylococcus aureus; conditions: for MBC: Staphylococcus aureus, MW2WILDTYPE
Description: FIGS. 15A-15B show checkerboard assays for determining bactericidal assay. Serial two-fold dilutions of 2 mM of Inh2-B1 (MW=411.58 g/mol) and (A) 3 mM ceftriaxone (MW=669.7 g/mol) were made in two separate 96-well plates in vertical (B1-B12 to H1-H2 wells) and horizontal (A2-H2 to A12-H12 wells) directions respectively. Serially diluted Inh2-B1 (100 μL) in the individual well was then mixed with the 100 μL serially diluted ceftriaxone present in the corresponding wells. The resulting various combinations of Inh2-B1 (starting from 1 mM) and ceftriaxone (starting from 1.5 mM) or cefotaxime (2.1 mM) as well as serially diluted one Inh2-B1 (B1 to H1) and ceftriaxone (A2-A12) or cefotaxime (A2-A12) were then incorporated in Muller-Hinton mini agar plates (2 mL). The agar plates were then seeded and diluted S. aureus MW2-wild-type culture equivalent to approximately 23±3 CFU. This checkerboard assay was used to determine the ideal combination of lowest concentration of Inh2-B1 and ceftriaxone that kills 99.9% of the wild-type MW2.
as §1
(§2) Subsequently, the susceptibility of S. aureus MW2 strain to Ceftriaxone, Cefotaxime, Inh2, and Inh2-B1 was confirmed by the CLSI recommended serial dilution method using Muller Hinton broth. Minimum bactericidal activity (MBC) was measured using Muller-Hinton agar. Changes in the MBC of Ceftriaxone/Cefotaxime in the presence of serially diluted Inh2-B1 was determined in two steps. Initial screening was carried out using the Checkerboard method using Muller-Hinton agar (FIG. 15). […] Subsequent time to kill assays were carried out using 50 μM Inh2-B1 and Ceftriaxone. Cefotaxime (1 μg/ml) in a final volume of 250 μl using a sterile 96-well (U-bottom) microtiter plate over a period of 16 h at 37° C. under constant rotation (120 rpm). Optical density and corresponding CFU counts were measured at every two-hour interval up to 8 hours with a final overnight reading at the end of incubation period. CFU counts were measured using appropriate dilution of 10 μl of properly mixed samples at each time interval.

S. aureus MW2ΔSTK1 = test: Time-to-kill assay (OD and CFU counts over 16 h), broth dilution; format: cell-based, Staphylococcus aureus; conditions: in the presence of Ceftriaxone (1 μg/ml)
Description: (§3) FIGS. 4A-F show. […] Optical Density and corresponding Colony forming units of (C and D) MW2-WT and (E and F) MW2ΔSTK1 cultures in the presence or absence 50 μM Inh2-B1, 1.51 μM (1 μg/ml) Ceftriaxone, 2.125 μM (1 μg/ml) Cefotaxime, and combination of Inh2-B1 plus Ceftriaxone, and Inh2-B1 plus Cefotaxime. The experiments were carried out as described in the Materials and Method section using Muller-Hinton broth and seeded with 4×10^6 CFUs of S. aureus MW2-Wild type or MW2ΔSTK1 strains per well. Each data points represent Mean±S.D. P values of significance (**=<0.01, ***=<0.001) were determined using the t-test with Welch's corrections. NS—Not significant.
as §2, with “interval. All experiments were performed in three biological replicates and the statistical analysis of the results obtained at each time point was carried out by the non-parametric t-test with Welch's correction using GraphPad Prism 6 software.” for “interval.”

S. aureus MW2-WT [6] = test: as above; format: cell-based, Staphylococcus aureus; conditions: only 50 μM Inh2-B1, only 1.5 μM Ceftriaxone (1 μg/ml) or only 3 μM Cefotaxime (1 μg/ml), 16 h
Description: as §3
as §2, with “interval. All experiments were performed in three biological replicates and the statistical analysis of the results obtained at each time point was carried out by the non-parametric t-test with Welch's correction using GraphPad Prism 6 software.” for “interval.”

S. pyogenes SP-STK = test: In vitro autophosphorylation / kinase activity of SP-STK; format: biochemical; conditions: at 116 μM
[7] = molecular target: S. aureus STKK1 (the soluble kinase domain of STK1, 280 aa) (Staphylococcus aureus, UniProt A0ABF7PGK0); test: In vitro kinase assay: inhibition of autophosphorylation of recombinant STKK1 (γ32P-ATP); format: biochemical; conditions: after 5 min pre-incubation
Chain of S. aureus STKK1 (the soluble kinase domain of STK1, 280 aa) (A0ABF7PGK0 entry or part of it): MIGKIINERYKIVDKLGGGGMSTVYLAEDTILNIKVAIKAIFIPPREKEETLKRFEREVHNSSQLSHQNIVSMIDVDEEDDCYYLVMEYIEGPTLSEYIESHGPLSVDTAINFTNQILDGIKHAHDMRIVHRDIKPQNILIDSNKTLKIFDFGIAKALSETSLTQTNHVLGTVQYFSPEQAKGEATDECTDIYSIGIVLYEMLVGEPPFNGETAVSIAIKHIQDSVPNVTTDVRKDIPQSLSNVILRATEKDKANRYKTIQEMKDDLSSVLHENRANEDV
Description: For the present study, recombinant His-tag-STKK1 was created along with part of the adjacent juxta-membrane domain (1-280 aa) using the pET14b vector system and specific primers (Table-1 and Table-2) as described previously. The recombinant proteins were expressed in BL21 DE3 (pLysS) and purified using Ni^+2-NTA-affinity chromatography, dialyzed against 10 mM Tris/HCl, pH 7.5, and stored as 10% glycerol stock (500 μg/ml) at −20° C. as described previously. In vitro kinase assays were performed using 2 μg STKK1 in the presence of 1 μCi γ^32P-ATP (specific activity 3000 Ci/mMol, PerkinElmer) at 30° C. for 45 min in a final volume of 30 μl phosphorylation buffer (50 mM Tris/HCl, pH7.5, 1 mM dithiothreitol, 5 mM MgCl2, and/or 5 mM MnCl2). The inhibition of autophosphorylation of STKK1 was carried out using this assay in the presence and absence of (50 μM) individual members of the 32 prescreened small molecule compound library. Phosphorylated proteins were separated by SDS-PAGE and subsequently identified by using Coomassie stain and autoradiography. The individual phosphorylated protein bands were then excised and subjected to radioactive counting using beta-scintillation counter for quantitative analysis. Experiments were repeated at least three times for statistical analysis.

[8] = tested on: cell wall hydrolase genes in S. aureus MW2-WT; test: qRT-PCR mRNA expression of cell wall hydrolase genes; format: cell-based, Staphylococcus aureus; conditions: treated MW2-WT vs untreated
Description: The late log phase-grown S. aureus strains MW2 wild-type, and isogenic ΔSTK1 and ΔSTP1 mutant strains, as well as S. aureus MW2 strain treated with 25 μM Inh2-B1 for 4 h, were subjected to lysostaphin treatment to obtain whole cell lysate. Total RNA from the resulting lysate was first extracted by TRIZOL™ (Invitrogen/Thermo) and treated with RNase-free DNaseI. High-quality total RNA (RIN>7.0, and 260/280 and 260/230 ratios >1.8) was then extracted by using RNA purification kit (Norgen, Canada) per manufacturer's instructions and confirmed by an Agilent 2100 Bioanalyzer (Agilent Technologies, Palo Alto, Calif.). The first-strand cDNA from the total RNA was generated, and relative mRNA concentration was quantitated using SYBR Green qRT-PCR master mix and specific primers, using a Light Cycler® 480 real-time PCR machine (Table 2). The results obtained for all samples (three biological replicates each in triplicates) were normalized to corresponding values of 16S rRNA. All results including relative fold-changes in the mRNA expression (mutant vs. wild-type or treated vs. nontreated) for individual genes were analyzed using Exor4 software (Roche Applied Science). Changes in expression ratios by more than 2-fold (up- or down-regulation) were considered as significant.

S. aureus STK1 / STKK1 = test: Solid-phase ATP affinity chromatography, elution of bound kinase by inhibitor, Western blot; format: binding; conditions: eluted with 50 μM inhibitor, anti-STK1 immunoblot
Description: (§4) An overnight culture of S. aureus MW2 strain was centrifuged, and the resulting bacterial pellet was resuspended in lysostaphin digestion buffer (50 mM Tris/HCl buffer, pH 7.5, containing 5 μg/ml DNAse/RNAse and protease inhibitor cocktail) in 1/10 the volume of the original culture volume. The latter was then subjected to lysostaphin treatment (15 U/ml). The lysostaphin digest was sonicated (5 sec pulse at every 10 sec for 10 min at 50% of 130 W, […]), and the debris free whole cell lysate was obtained after centrifugation (10.000×g, 10 min, 4° C.). […] The column was then washed with ten column volumes of binding buffer. Subsequently, the bound proteins were eluted with the 10-column volume of buffer containing 50 μM Inh-2 and Inh2-B1. S. aureus crude lysate, the last fraction of the column washing step, and eluted fractions were resolved by SDS-PAGE and electroblotted onto a PVDF membrane. […] A similar experiment was performed using S. pyogenes whole cell lysates obtained from phage lysin-digested S. pyogenes M1T1 strain using the anti-SP-STK antibody as described previously using to determine the specificity of the inhibitor for S. aureus STK1.

[9] = tested on: S. pyogenes SP-STK / SP-STKK; test: as above; format: binding; conditions: 50 μM inhibitor
Description: as §4

S. aureus MW2 = test: Broth dilution susceptibility / growth inhibition assay, Muller Hinton broth; format: cell-based, Staphylococcus aureus; conditions: Staphylococcus aureus
Description: as §2, with “interval. All experiments were performed in three biological replicates and the statistical analysis of the results obtained at each time point was carried out by the non-parametric t-test with Welch's correction using GraphPad Prism 6 software.” for “interval.”

Row | Structure (SMILES) | MIC [1] [µg/mL] | bactericidal activity against the passaged strain (S. aureus MW2 wild-type [2]) | MIC [3] [µg/mL] | MIC (S. aureus MW2-WT [4]) [µg/mL] | MBC (S. aureus MW2 wild-type [5]; agent alone, MW2, read-out: Minimum bactericidal concentration (MBC)) | MBC (S. aureus MW2 wild-type [5]; in the presence of 50 μM of Inh2-B1, read-out: MBC for MW2 in the presence of Inh2-B1) | concentration up to which growth of MW2 was seen (S. aureus MW2 wild-type [5]; agent alone, further analysis) [µM] | concentration of wells with ≥1 CFU of wild-type MW2 (S. aureus MW2 wild-type [5]; checkerboard, agent alone) [µM] | fold reduction of MBC (S. aureus MW2 wild-type [5]; in the presence of 50 μM of Inh2-B1 vs antibiotic alone) [fold] | growth of MW2ΔSTK1 (S. aureus MW2ΔSTK1) | growth pattern of the wild-type, single agent (S. aureus MW2-WT [6]) | inhibition of autophosphorylation of S. pyogenes SP-STK (S. pyogenes SP-STK) | IC50 [7] [µM] | expression of cell wall hydrolase-encoding genes [8] | elution of STK1 bound to ATP-column, whole cell lysate of S. aureus MW2 (S. aureus STK1 / STKK1) | elution of SP-STK bound to ATP-column, S. pyogenes whole cell lysate [9] | IC50 (S. aureus MW2; MW2, read-out: IC50 concentration for MW2) [µM] | MIC (S. aureus MW2; MW2, read-out: minimum inhibitory concentration) [µM]
1 | CO/N=C(\C(=O)N[C@@H]1C(=O)N2C(C(=O)O)=C(CSc3nc(=O)c(=O)[nH]n3C)CS[C@H]12)c1csc(N)n1 [Ceftriaxone] | 4 (≈ 7.21 µM) | remained intact | > 100 | > 100 | 151 µM and 100 µg/mL | 0.59 µM and 0.39 µg/mL | 125 | ≤ 75.00 | 256 | reduced significantly | remained unaltered |  |  |  |  |  |  | 
2 | Cc1ccc(NC(=O)c2sc(=S)n3c2[nH]c(=O)c2ccccc23)c(C)c1 [Inh2, N-(2,4-Dimethylphenyl)-5-oxo-1-thioxo-4,5-dihydro[1,3]thiazolo[3,4-a]quinazoline-3-carboxamide] |  |  |  |  |  |  |  |  |  |  |  | did not inhibit autophosphorylation | 24.5 | down-regulation of cell wall hydrolase-encoding genes | presence of STK1 | did not elute | 12 | 48
